Values quoted from earlier work as cited in US20040033271A1, “Methods for contemporaneous administration of levamisole and 5-fluorouracil” (priority 2003, published 2004).
Like-named read-outs stand apart in the source and are kept apart here. Each block holds one molecule with its values, some of them ahead of it.

What was measured:
bladder cancer = conditions: rats
[1] = guinea pigs
A375 melanoma cell line = conditions: most sensitive cell line
breast cancer [2] = conditions: superimposed on CAF; no same-day 5-FU and levamisole
[3] = system: Human colorectal cancer xenografts; conditions: levamisole alone
[4] = not given; remark: listed apart in the source
breast cancer [5] = conditions: post-surgical levamisole, large study
[6] = levamisole in humans
Dukes' C. colon cancer = conditions: levamisole alone
colorectal cancer = conditions: added to leucovorin/5-FU regimen after surgical resection
[7] = not given; remark: listed apart in the source

phosphatase inhibition (phosphatases): capable of inhibiting phosphatases
Structure (SMILES): Brc1ccc([C@H]2CN3CCSC3=N2)cc1 [4-bromo analogue of levamisole, 4-bromolevamisole]

Structure (SMILES): Oc1ccc([C@H]2CN3CCSC3=N2)cc1 [4-hydroxy analogue of levamisole, 4-hydroxylevamisole]
phosphatase inhibition (phosphatases): capable of inhibiting phosphatases

Structure (SMILES): c1ccc([C@@H]2CN3CCSC3=N2)cc1 [Dexamisole]
potentiation of BCNU compared with levamisole (bladder cancer): less active

Structure (SMILES): c1ccc([C@H]2CN3CCSC3=N2)cc1 [levamisole]
IV dose at which ECG irregularities were seen [1]: 10 mg/kg
levamisole concentration affecting colony formation (A375 melanoma cell line; in presence of 5-FU): 30 µg/mL
levamisole concentration affecting colony formation (A375 melanoma cell line; molar value in brackets): 0.125 µM
effect of added levamisole (breast cancer [2]): modest effects over untreated historical controls
effect on xenografts [3]: unaffected
adverse effect of increased oral dose (five-fold increase in the recommended oral levamisole dose): severe nausea and vomiting
maximum tolerable dose (oral t.i.d. for five days with daily 5-FU, repeated every five weeks): 100 mg/m^2
time after administration at which cardiac effects are seen ([4]; bolus IV, stated for rats and guinea pigs together): ≤ 60 s
IV dose at which cardiotoxicity was observed (as low as) ([4]; rats, IV): 2 mg/kg
recurrence (breast cancer [5]): increase in recurrence
serum half-life [6]: about four
clinical benefit (Dukes' C. colon cancer): no benefit
effect of addition of levamisole (colorectal cancer): no additive effect
time to peak plasma concentration ([7]; after oral levamisole administration): 2 h
difference between the highest and lowest AUC (area under curve) ([7]; twenty cancer patients, oral levamisole 50 mg t.i.d.): seven
